Measured values published in US12157746B2, “Tetrahydro-1H-pyrazino[2,1-a]isoindolylquinoline compounds for the treatment of autoimmune disease” (F. HOFFMANN-LA ROCHE AG, priority 2018, dated 2024).

Biological target: T1, human TLR7 (Homo sapiens, UniProt Q9NYK1)
T1 sequence (Q9NYK1 27-1049): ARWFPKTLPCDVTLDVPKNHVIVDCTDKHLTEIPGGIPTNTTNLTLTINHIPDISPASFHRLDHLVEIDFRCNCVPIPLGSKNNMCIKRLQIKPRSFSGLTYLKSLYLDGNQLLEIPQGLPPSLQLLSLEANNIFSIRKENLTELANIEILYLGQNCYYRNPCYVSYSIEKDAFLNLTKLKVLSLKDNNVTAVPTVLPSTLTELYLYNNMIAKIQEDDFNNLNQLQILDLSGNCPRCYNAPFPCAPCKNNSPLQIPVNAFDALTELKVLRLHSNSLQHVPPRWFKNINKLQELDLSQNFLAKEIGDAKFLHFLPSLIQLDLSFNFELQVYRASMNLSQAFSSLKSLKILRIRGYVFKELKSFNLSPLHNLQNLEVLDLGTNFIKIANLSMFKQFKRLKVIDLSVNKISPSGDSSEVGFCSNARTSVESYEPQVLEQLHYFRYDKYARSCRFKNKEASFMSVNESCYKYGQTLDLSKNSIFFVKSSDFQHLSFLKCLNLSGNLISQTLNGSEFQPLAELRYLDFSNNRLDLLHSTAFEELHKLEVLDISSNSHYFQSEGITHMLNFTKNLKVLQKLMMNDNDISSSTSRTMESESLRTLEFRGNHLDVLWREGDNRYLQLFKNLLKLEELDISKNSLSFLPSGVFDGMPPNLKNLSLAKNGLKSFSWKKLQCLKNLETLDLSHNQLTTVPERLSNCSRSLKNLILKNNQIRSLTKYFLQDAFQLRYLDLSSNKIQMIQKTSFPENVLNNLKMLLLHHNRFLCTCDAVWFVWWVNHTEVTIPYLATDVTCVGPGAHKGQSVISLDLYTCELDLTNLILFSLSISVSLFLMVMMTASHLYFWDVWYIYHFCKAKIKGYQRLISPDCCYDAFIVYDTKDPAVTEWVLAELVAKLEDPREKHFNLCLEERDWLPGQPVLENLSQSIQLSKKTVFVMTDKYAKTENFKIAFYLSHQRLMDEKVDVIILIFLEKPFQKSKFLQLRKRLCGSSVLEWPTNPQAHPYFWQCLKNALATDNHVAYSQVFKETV
Experiment: HEK293-Blue-hTLR-7 cells assay
Format: cell-based
Settings: HEK293-Blue-hTLR7 cells, R848 stimulation, 20 hrs, SEAP reporter; read-out: HEK/hTLR7 IC50
From the text: HEK293-Blue-hTLR-7 Cells Assay:
A stable HEK293-Blue-hTLR-7 cell line was purchased from InvivoGen (Cat. #: hkb-htlr7, San Diego, California, USA). These cells were originally designed for studying the stimulation of human TLR7 by monitoring the activation of NF-κB. A SEAP (secreted embryonic alkaline phosphatase) reporter gene was placed under the control of the IFN-β minimal promoter fused to five NF-κB and AP-1-binding sites. The SEAP was induced by activating NF-κB and AP-1 via stimulating HEK-Blue hTLR7 cells with TLR7 ligands. Therefore the reporter expression was declined by TLR7 antagonist under the stimulation of a ligand, such as R848 (Resiquimod), for incubation of 20 hrs. The cell culture supernatant SEAP reporter activity was determined using QUANTI-Blue™ kit (Cat. #: rep-qb1, Invivogen, San Diego, Ca. USA) at a wavelength of 640 nm, a detection medium that turns purple or blue in the presence of alkaline phosphatase.
HEK293-Blue-hTLR7 cells were incubated at a density of 250,000˜450,000 cells/mL in a volume of 170 μL in a 96-well plate in Dulbecco's Modified Eagle's medium (DMEM) containing 4.5 g/L glucose, 50 U/mL penicillin, […], […], 2 mM L-glutamine, 10% (v/v) heat-inactivated fetal bovine serum with addition of 20 μL test compound 1n a serial dilution in the presence of final DMSO at 1% and 10 μL of 20 uM R848 in above DMEM, perform incubation under 37° C. in a CO2 incubator for 20 hrs. Then 20 μL of the supernatant from each well was incubated with 180 μL Quanti-blue substrate solution at 37° C. for 2 hrs and the absorbance was read at 620-655 nm using a spectrophotometer. The signaling pathway that TLR7 activation leads to downstream NF-κB activation has been widely accepted, and therefore similar reporter assay was modified for evaluating TLR7 antagonist.

IC50 [nM] | SMILES
4.9 | CO[C@@H]1CN(c2ccc3c(c2)CN2[C@H](C)CN(c4ccc(C#N)n5nccc45)C[C@H]32)CC[C@@H]1N [Example 105, 4-[(4R,10bS)-8-[(3R,4S)-4-amino-3-methoxy-1-piperidyl]-4-methyl-3,4,6,10b-tetrahydro-1H-pyrazino[2,1-a]isoindol-2-yl]pyrazolo[1,5-a]pyridine-7-carbonitrile]
17.5 | C[C@@H]1CN(c2ccc(C#N)n3nccc23)C[C@@H]2c3ccc(N4C[C@@H](N)[C@](C)(O)C4)cc3CN12 [Example 108, 4-[(4R,10bS)-8-[(3R,4R)-4-amino-3-hydroxy-3-methyl-pyrrolidin-1-yl]-4-methyl-3,4,6,10b-tetrahydro-1H-pyrazino[2,1-a]isoindol-2-yl]pyrazolo[1,5-a]pyridine-7-carbonitrile]
25.8 | C[C@@H]1CN(c2ccc(C#N)n3nccc23)C[C@@H]2c3ccc(N4CC[C@@](C)(N)C4)cc3CN12 [Example 103, 4-[(4R,10bS)-8-[(3R)-3-amino-3-methyl-pyrrolidin-1-yl]-4-methyl-3,4,6,10b-tetrahydro-1H-pyrazino[2,1-a]isoindol-2-yl]pyrazolo[1,5-a]pyridine-7-carbonitrile]
6 | CO[C@@H]1CN(c2ccc3c(c2)CN2[C@H](C)CN(c4ccc(C#N)n5ncc(F)c45)C[C@H]32)C[C@H]1N [Example 113, 4-[(4R,10bS)-8-[(3R,4R)-3-amino-4-methoxy-pyrrolidin-1-yl]-4-methyl-3,4,6,10b-tetrahydro-1H-pyrazino[2,1-a]isoindol-2-yl]-3-fluoro-pyrazolo[1,5-a]pyridine-7-carbonitrile]
28.1 | C[C@@H]1CN(c2ccc(C#N)n3nccc23)C[C@@H]2c3ccc(N4C[C@H](N)[C@@](C)(O)C4)cc3CN12 [Example 109, 4-[(4R,10bS)-8-[(3S,4S)-4-amino-3-hydroxy-3-methyl-pyrrolidin-1-yl]-4-methyl-3,4,6,10b-tetrahydro-1H-pyrazino[2,1-a]isoindol-2-yl]pyrazolo[1,5-a]pyridine-7-carbonitrile]
19 | C[C@@H]1CN(c2ccc(C#N)n3nccc23)C[C@@H]2c3ccc(N4C[C@@H](N)[C@H](O)C4)cc3CN12 [Example 110, 4-[(4R,10bS)-8-[(3R,4R)-3-amino-4-hydroxy-pyrrolidin-1-yl]-4-methyl-3,4,6,10b-tetrahydro-1H-pyrazino[2,1-a]isoindol-2-yl]pyrazolo[1,5-a]pyridine-7-carbonitrile]

Further lines, the molecule ahead of its results:

SMILES | IC50 [nM]
C[C@@H]1CN(c2ccc(C#N)c3ncccc23)C[C@@H]2c3ccc(N4CCC(C)(N)CC4)cc3CN12 [Example 51, 5-[(4R,10bS)-8-(4-amino-4-methyl-1-piperidyl)-4-methyl-3,4,6,10b-tetrahydro-1H-pyrazino[2,1-a]isoindol-2-yl]quinoline-8-carbonitrile] | 1.4
C[C@@H]1CN(c2ccc(C#N)n3nccc23)C[C@@H]2c3ccc(N4CCNCC4)cc3CN12 [Example 5, 4-[(4R,10bS)-4-methyl-8-piperazin-1-yl-3,4,6,10b-tetrahydro-1H-pyrazino[2,1-a]isoindol-2-yl]pyrazolo[1,5-a]pyridine-7-carbonitrile] | 4.9
C[C@@H]1CN(c2ccc(C#N)c3ncccc23)C[C@@H]2c3ccc(N4C[C@H](N)[C@@H](F)C4)cc3CN12 [Example 49, 5-[(4R,10bS)-8-[(3S,4S)-3-amino-4-fluoro-pyrrolidin-1-yl]-4-methyl-3,4,6,10b-tetrahydro-1H-pyrazino[2,1-a]isoindol-2-yl]quinoline-8-carbonitrile] | 4.5
C[C@@H]1CN(c2ccc(C#N)c3ncccc23)C[C@@H]2c3ccc(N4CCNCC(O)C4)cc3CN12 (stereo partly drawn) [Example 15, 5-[(4R,10bS)-8-(6-hydroxy-1,4-diazepan-1-yl)-4-methyl-3,4,6,10b-tetrahydro-1H-pyrazino[2,1-a]isoindol-2-yl]quinoline-8-carbonitrile] | 5.8
C[C@@H]1CN(c2ccc(C#N)c3ncccc23)C[C@@H]2c3ccc(C4CCNCC4)cc3CN12 [Example 9, 5-[(4R,10bS)-4-methyl-8-(4-piperidyl)-3,4,6,10b-tetrahydro-1H-pyrazino[2,1-a]isoindol-2-yl]quinoline-8-carbonitrile] | < 3.2
C[C@@H]1CN(c2ccc(C#N)n3nccc23)C[C@@H]2c3ccc(N4CCOC[C@H](N)C4)cc3CN12 [Example 101, 4-[(4R,10bS)-8-[(6R)-6-amino-1,4-oxazepan-4-yl]-4-methyl-3,4,6,10b-tetrahydro-1H-pyrazino[2,1-a]isoindol-2-yl]pyrazolo[1,5-a]pyridine-7-carbonitrile] | 26.4
C[C@@H]1CN(c2ccc(C#N)c3ncccc23)C[C@@H]2c3ccc(N4C[C@@H](N)[C@@H](F)C4)cc3CN12 [Example 47, 5-[(4R,10bS)-8-[(3R,4S)-3-amino-4-fluoro-pyrrolidin-1-yl]-4-methyl-3,4,6,10b-tetrahydro-1H-pyrazino[2,1-a]isoindol-2-yl]quinoline-8-carbonitrile] | 4.8
CN[C@@H]1CN(c2ccc3c(c2)CN2[C@H](C)CN(c4ccc(C#N)c5ncccc45)C[C@H]32)C[C@H]1O [Example 43, 5-[(4R,10bS)-4-methyl-8-[(3R,4R)-3-hydroxy-4-(methylamino)pyrrolidin-1-yl]-3,4,6,10b-tetrahydro-1H-pyrazino[2,1-a]isoindol-2-yl]quinoline-8-carbonitrile] | 4
CO[C@H]1CN(c2ccc3c(c2)CN2[C@H](C)CN(c4ccc(C#N)n5nccc45)C[C@H]32)C[C@@H]1N [Example 95, 4-[(4R,10bS)-8-[(3S,4S)-3-amino-4-methoxy-pyrrolidin-1-yl]-4-methyl-3,4,6,10b-tetrahydro-1H-pyrazino[2,1-a]isoindol-2-yl]pyrazolo[1,5-a]pyridine-7-carbonitrile] | 20.8
CO[C@@H]1CNC[C@H]1Nc1ccc2c(c1)CN1[C@H](C)CN(c3ccc(C#N)c4ncccc34)C[C@H]21 [Example 34, 5-[(4R,10bS)-8-[[(3R,4R)-4-methoxypyrrolidin-3-yl]amino]-4-methyl-3,4,6,10b-tetrahydro-1H-pyrazino[2,1-a]isoindol-2-yl]quinoline-8-carbonitrile] | 7.4
C[C@@H]1CN(c2ccc(C#N)c3ncccc23)C[C@@H]2c3ccc(N4C[C@H]5NCCO[C@@H]5C4)cc3CN12 [Example 44, 5-[(4R,10bS)-4-methyl-8-[(4aR,7aR)-3,4,4a,5,7,7a-hexahydro-2H-pyrrolo[3,4-b][1,4]oxazin-6-yl]-3,4,6,10b-tetrahydro-1H-pyrazino[2,1-a]isoindol-2-yl]quinoline-8-carbonitrile] | 19.1
COC12CNCC1CN(c1ccc3c(c1)CN1[C@H](C)CN(c4ccc(C#N)c5ncccc45)C[C@H]31)C2 (stereo partly drawn) [Example 41, 5-[(4R,10bS)-8-(3a-methoxy-1,2,3,4,6,6a-hexahydropyrrolo[3,4-c]pyrrol-5-yl)-4-methyl-3,4,6,10b-tetrahydro-1H-pyrazino[2,1-a]isoindol-2-yl]quinoline-8-carbonitrile] | < 3.2
C[C@@H]1CN(c2ccc(C#N)c3ncccc23)C[C@@H]2c3ccc(N4CC(N)C4)cc3CN12 [Example 22, 5-[(4R,10bS)-8-(3-aminoazetidin-1-yl)-4-methyl-3,4,6,10b-tetrahydro-1H-pyrazino[2,1-a]isoindol-2-yl]quinoline-8-carbonitrile] | < 3.2
